Source: patent US8952024B2, “Herbicidal pyrimidone derivatives” (E I du Pont de Nemours and Company, priority 2009, dated 2015)

Key:
Type in all cases: in vivo
[1] = test system: barnyardgrass (Echinochloa crus-galli); test: Test B flooded paddy test
In short: (§1)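 Visual scores run from 0 (no effect) to 100 (complete control), assigned by comparison with controls 13 to 15 days after treatment. Test compounds went straight into water standing 3 cm above the soil, around plants at the 2-leaf stage kept in a greenhouse.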

[2] = test system: ducksalad (Heteranthera limosa); test: Test B flooded paddy test
In short: as §1

rice (Oryza sativa) = test: Test B flooded paddy test
In short: as §1

[3] = test system: umbrella sedge (Cyperus difformis); test: Test B flooded paddy test
In short: as §1

[4] = test system: Italian ryegrass (Lolium multiflorum); test: Test B pre-/postemergence plant response
In short: (§2)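 Response scores were assigned visually after 13 to 15 days in a greenhouse, comparing treated pots with controls on a 0–100 scale where 100 denotes complete control. Preemergence treatments went onto freshly seeded loam/sand soil; postemergence treatments onto plants 2 to 18 cm tall.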

[5] = test system: Surinam grass (Brachiaria decumbens); test: Test B pre-/postemergence plant response
In short: as §2

corn (Zea mays) = test: Test B pre-/postemergence plant response
In short: as §2

[6] = test system: cocklebur (Xanthium strumarium); test: Test B pre-/postemergence plant response
In short: as §2

soybean (Glycine max) = test: Test B pre-/postemergence plant response
In short: as §2

[7] = test system: morningglory (Ipomoea coccinea); test: Test B pre-/postemergence plant response
In short: as §2

[8] = test system: ragweed (common ragweed, Ambrosia elatior); test: Test B pre-/postemergence plant response
In short: as §2

[9] = test system: bermudagrass (Cynodon dactylon); test: Test B pre-/postemergence plant response
In short: as §2

[10] = test system: blackgrass (Alopecurus myosuroides); test: Test B pre-/postemergence plant response
In short: as §2

[11] = 250 g ai/ha, flooded paddy test, visual rating on 0 to 100 scale (0 no effect, 100 complete control) after 13 to 15 days
[12] = Flood (flooded paddy test), 62 g ai/ha, scale of 0 to 100 where 0 is no effect and 100 is complete control, 13 to 15 days
[13] = 62 g ai/ha, postemergence, 0 is no effect, 100 is complete control, 13 to 15 days
[14] = Postemergence, 125 g ai/ha, scale 0 to 100 (0 no effect, 100 complete control)
[15] = Postemergence, 250 g ai/ha, scale 0 to 100 (0 no effect, 100 complete control)
[16] = Preemergence, 31 g ai/ha, scale 0 to 100 (0 no effect, 100 complete control)
[17] = Preemergence, 62 g ai/ha, scale 0 to 100 (0 no effect, 100 complete control)
[18] = Preemergence, 125 g ai/ha, scale 0 to 100, 0 no effect, 100 complete control
[19] = Preemergence, 250 g ai/ha, 0 to 100 scale
[20] = 31 g ai/ha, postemergence, scale 0 to 100, 0 is no effect, 100 is complete control

For `COCCCn1c(-c2cc(F)cc(F)c2)ncc(C(=O)C2=C(O)CCCC2=O)c1=O` [Compound 120], the “Plant response rating, Flood, Barnyardgrass” value [1, 11] was 65, the “Plant response rating, Barnyardgrass” value [1, 12] was 20 and the “Plant response rating, Flood, Ducksalad” value [2, 11] was 85. The “Plant response rating, Ducksalad” value [2, 12] was 30, the “Plant response rating, Flood, Rice” value (rice (Oryza sativa); [11]) was 40 and the “Plant response rating, Rice” value (rice (Oryza sativa); [12]) was 0. The “Plant response rating, Flood, Sedge, Umbrella” value [3, 11] was 75, the “Plant response rating, Sedge, Umbrella” value [3, 12] was 40 and the “Ryegrass, Italian plant response rating (0 to 100 scale)” value [4, 13] was 40. The “Plant response rating, Ryegrass, Italian” value [4, 14] was 60, the “Plant response rating, Ryegrass, Italian” value [4, 15] was 80 and the “Plant response rating, Ryegrass, Italian” value [4, 16] was 100. For the same molecule, the “Plant response rating, Ryegrass, Italian” value [4, 17] was 100, the “Plant response rating, Ryegrass, Italian” value [4, 18] was 100 and the “Ryegrass, Italian plant response rating” value [4, 19] was 100. For the same molecule, the “Surinam Grass plant response rating (0 to 100 scale)” value [5, 13] was 85, the “Plant response rating, Surinam Grass” value [5, 14] was 100 and the “Plant response rating, Surinam Grass” value [5, 15] was 100. The “Plant response rating, Surinam Grass” value [5, 16] was 100, the “Plant response rating, Surinam Grass” value [5, 17] was 100 and the “Plant response rating, Surinam Grass” value [5, 18] was 100. The “Surinam Grass plant response rating” value [5, 19] was 100, the “Plant response rating, Corn” value (corn (Zea mays); [20]) was 15 and the “Corn plant response rating (0 to 100 scale)” value (corn (Zea mays); [13]) was 20. For the same molecule, the “Plant response rating, Corn” value (corn (Zea mays); [14]) was 50, the “Plant response rating, Corn” value (corn (Zea mays); [15]) was 75 and the “Plant response rating, Corn” value (corn (Zea mays); [16]) was 0. For the same molecule, the “Plant response rating, Corn” value (corn (Zea mays); [18]) was 25, the “Corn plant response rating” value (corn (Zea mays); [19]) was 55 and the “Plant response rating, Cocklebur” value [6, 20] was 10. The “Cocklebur plant response rating (0 to 100 scale)” value [6, 13] was 15, the “Plant response rating, Cocklebur” value [6, 14] was 25 and the “Plant response rating, Cocklebur” value [6, 15] was 80. The “Plant response rating, Cocklebur” value [6, 16] was 0, the “Plant response rating, Cocklebur” value [6, 17] was 35 and the “Plant response rating, Cocklebur” value [6, 18] was 60. For the same molecule, the “Cocklebur plant response rating” value [6, 19] was 98, the “Soybean plant response rating (0 to 100 scale)” value (soybean (Glycine max); [13]) was 80 and the “Plant response rating, Soybean” value (soybean (Glycine max); [14]) was 95. For the same molecule, the “Plant response rating, Soybean” value (soybean (Glycine max); [15]) was 98, the “Plant response rating, Soybean” value (soybean (Glycine max); [16]) was 15 and the “Plant response rating, Soybean” value (soybean (Glycine max); [17]) was 70. For the same molecule, the “Plant response rating, Soybean” value (soybean (Glycine max); [18]) was 80, the “Soybean plant response rating” value (soybean (Glycine max); [19]) was 80 and the “Plant response rating, Morningglory” value [7, 20] was 15. For the same molecule, the “Morningglory plant response rating (0 to 100 scale)” value [7, 13] was 50, the “Plant response rating, Morningglory” value [7, 14] was 80 and the “Plant response rating, Morningglory” value [7, 15] was 90. The “Plant response rating, Morningglory” value [7, 16] was 0, the “Plant response rating, Morningglory” value [7, 17] was 90 and the “Plant response rating, Morningglory” value [7, 18] was 90. For the same molecule, the “Morningglory plant response rating” value [7, 19] was 100, the “Ragweed plant response rating (0 to 100 scale)” value [8, 13] was 75 and the “Plant response rating, Ragweed” value [8, 14] was 75. The “Plant response rating, Ragweed” value [8, 15] was 80, the “Plant response rating, Ragweed” value [8, 16] was 80 and the “Plant response rating, Ragweed” value [8, 17] was 80. The “Plant response rating, Ragweed” value [8, 18] was 95, the “Ragweed plant response rating” value [8, 19] was 95 and the “Plant response rating, Bermudagrass” value [9, 20] was 80. The “Bermudagrass plant response rating (0 to 100 scale)” value [9, 13] was 95, the “Plant response rating, Bermudagrass” value [9, 14] was 98 and the “Plant response rating, Bermudagrass” value [9, 15] was 98. For the same molecule, the “Plant response rating, Bermudagrass” value [9, 16] was 100, the “Plant response rating, Bermudagrass” value [9, 17] was 100 and the “Plant response rating, Bermudagrass” value [9, 18] was 100. For the same molecule, the “Bermudagrass plant response rating” value ([9]; Preemergence, 250 g ai/ha, 0 to 100 scale, 0 no effect, 100 complete control) was 100, the “Plant response rating, Blackgrass” value [10, 20] was 30 and the “Blackgrass plant response rating (0 to 100 scale)” value [10, 13] was 30. The “Plant response rating, Blackgrass” value [10, 14] was 60, the “Plant response rating, Blackgrass” value [10, 15] was 60 and the “Plant response rating, Blackgrass” value [10, 16] was 5. The “Plant response rating, Blackgrass” value [10, 17] was 50, the “Plant response rating, Blackgrass” value [10, 18] was 50 and the “Blackgrass plant response rating” value [10, 19] was 50.
